Measured values as given in patent publication US20210177879A1, “VITAMIN D RECEPTOR AGONIST” (Guanghzou University of Chinese Medicine, priority 2018, published 2021).

Experiments:
[1] = tested on: HT29 colon cancer cells; experiment: In vitro proliferation inhibition of HT29 colon cancer cells; type: cell-based; conditions: concentration of 1 uM; compared with blank control group
Method: The HT29 cells were thawed, and cultured in a changed medium after 24 hours. Medium preparation method: 6% serum, 1% of a bispecific antibody+a 1640 basal medium. After grown to confluent, the cells were digested and subcultured to expand the number of cells. When reached the required amount, the cells were digested by trypsin, centrifuged, and resuspended in PBS to prepare a cell suspension of 1×10^8 cells/ml. A part of the cell suspension was added with the monotropein, desacetyl asperulosidic acid, asperuloside, and asperulosidic acid respectively, and the inhibition rate (%) of tumor cell proliferation by each of these different compounds was examined.

[2] = tested on: AOM/DSS colon cancer model; experiment: AOM/DSS colon cancer model, Experiment 1 (body weight, anal prolapse, organ coefficient, colon and tumor indexes); type: in vivo, Balb/c mice
Method: Experimental method: 90 Balb/c mice of 6-8 weeks were purchased from the Experimental Animal Center in Guangzhou University of Chinese Medicine, weighed about 18-22 g, and subjected to adaptive feeding for 10 days. Modeling was divided into three stages. In the first stage, except for the normal group of animals being given saline injection, each of the other animals were intraperitoneally injected with a carcinogen AOM (10 mg/kg), and given free access to 2% DSS water from the next day for 7 days, and then given access to replaced regular drinking water for 14 days. In the second stage, the animals were given free access to 2% DSS water for 10 days, and then given access to replaced regular drinking water for 14 days. In the third stage, the animals were given free access to 2% DSS water for 10 days, and then given access to replaced regular drinking water for 11 days. The normal group was given access to regular drinking water throughout the experiment. The diet, water drinking and body weights of the animals were recorded daily and DAI scores were made, and the animals were killed and harvested at the 10th week. In this experiment, the animals were divided into groups and administrated on the first day of a modeling period of the second stage, and the total number of groups was set to 5 groups. The first group was a blank control group (Normal), in which a total of 12 animals were given access to drinking water by gavage; the second group was a model group (AOM/DSS), in which a total of 22 animals were given access to drinking water by gavage; the third group was a positive drug control group (5-ASA+AOM/DSS), in which a total of 22 animals were given access to 100 mg/kg of mesalazine (5-ASA) by gavage; and the fourth and fifth groups were monotropein-intervening groups (Mo+AOM/DSS), which were a high dose of 8 mg/kg and a low dose of 2 mg/kg, respectively, with 17 animals in each group. Dosing was conducted daily until dissection.
(1) The calculation formula of a DAI score: DAI value=(score of weight loss+score of stool trait+score of blood in stool)/3.
The animals were anesthetized and harvested, and the liver, spleen, thymus and testis were weighed to calculate the organ coefficient; the colon tissue was taken, measured with a ruler for the length, and measured with a vernier caliper for the thickness, and the number and size of tumors and degree of colonic ulceration and adhesion were recorded; respective tissues were cut into small pieces and fixed, and the remaining tissues were frozen and stored; and the fixed tissues were used for HE staining and immunohistochemistry.

[3] = tested on: Aktl; experiment: Detection of acting target of monotropein: Aktl (Western blot); type: in vivo, Balb/c mice; conditions: colon of AOM/DSS mice
Method: Experimental method: 90 Balb/c mice of 6-8 weeks were purchased from the Experimental Animal Center in Guangzhou University of Chinese Medicine, weighed about 18-22 g, and subjected to adaptive feeding for 10 days. Modeling was divided into three stages. In the first stage, except for the normal group of animals being given saline injection, each of the other animals were intraperitoneally injected with a carcinogen AOM (10 mg/kg), and given free access to 2% DSS water from the next day for 7 days, and then given access to replaced regular drinking water for 14 days. In the second stage, the animals were given free access to 2% DSS water for 10 days, and then given access to replaced regular drinking water for 14 days. In the third stage, the animals were given free access to 2% DSS water for 10 days, and then given access to replaced regular drinking water for 11 days. The normal group was given access to regular drinking water throughout the experiment. The diet, water drinking and body weights of the animals were recorded daily and DAI scores were made, and the animals were killed and harvested at the 10th week. […]
A potential acting target of monotropein for interfering with the colon cancer was detected.

[4] = tested on: vitamin D receptor; experiment: Expression of vitamin D receptor in colon tissues, Experiment 2 (Western blot, immunohistochemistry); type: in vivo, Balb/c mice; conditions: compared with the blank group; VD3 0.2 mg/kg, four compounds 2 mg/kg
Method: Experimental method: 70 Balb/c mice of 6-8 weeks were purchased from the Experimental Animal Center in Guangzhou University of Chinese Medicine, weighed about 18-22 g, and subjected to adaptive feeding for 10 days. Modeling was divided into three stages. In the first stage, except for the normal group of animals being given saline injection, each of the other animals were intraperitoneally injected with a carcinogen AOM (10 mg/kg), and given free access to 2% DSS water from the next day for 7 days, and then given access to replaced regular drinking water for 14 days. In the second stage, the animals were given free access to 2% DSS water for 10 days, and then given access to replaced regular drinking water for 14 days. In the third stage, the animals were given free access to 2% DSS water for 10 days, and then given access to replaced regular drinking water for 11 days. The normal group was given access to regular drinking water throughout the experiment. The diet, water drinking and body weights of the animals were recorded daily and DAI scores were made, and the animals were killed and harvested at the 10th week. In this experiment, the animals were divided into groups and administrated on the first day of a modeling period of the second stage, where a total of 7 groups were set, each group including 10 animals. The first group was a blank control group (control) that was given access to drinking water by gavage; the second group was a model group (model), in which a total of 10 animals were given access to drinking water by gavage; the third group was a vitamin D3 positive administration control group (VD3, 0.2 mg/kg); and the fourth to seventh groups were given monotropein, desacetyl asperulosidic acid, asperuloside, and asperulosidic acid (groups labeled as: Mo, As, Aa, Da), respectively at a given dose of 2 mg/kg. Dosing was conducted once a day until the end of the experiment. At the end of the experiment, the animals were anesthetized and harvested, and the colon tissue was taken, measured with a ruler for the length, and measured with a vernier caliper for the thickness. The effects of monotropein, desacetyl asperulosidic acid, asperuloside and asperulosidic acid on expression of the vitamin D receptor were detected.

Question: Which “proliferation of HT29 colorectal cancer cells in vitro” value [1] does the source give for `O=C(O)C1=CO[C@@H](O[C@@H]2O[C@H](CO)[C@@H](O)[C@H](O)[C@H]2O)[C@H]2[C@@H]1C=C[C@]2(O)CO` [monotropein] here?
Answer: The value was “significantly inhibit the proliferation”.

Question: What about the “spleen enlargement caused by AOM/DSS modeling (organ coefficient)” value ([2]; monotropein high (8 mg/kg) and low (2 mg/kg) doses, 5-ASA 100 mg/kg) of the same molecule?
Answer: The value was “significantly reduce the spleen enlargement”.

Question: And the “anal prolapse occurrence at the third stage of modeling” value ([2]; per group, monotropein 8 mg/kg and 2 mg/kg groups (17 animals each), 5-ASA 100 mg/kg (22 animals), gavage daily, model group 8-12)?
Answer: Its value is 2-6 animals.

Question: What about the “effect on Aktl, Western blot” value [3] of the same molecule?
Answer: Its value is “no significant effect”.

Question: What about the “expression of the vitamin D receptor in the colon tissues (Western blot and immunohistochemistry)” value [4] of the same molecule?
Answer: Its value is “promote expression enhancement”.
